Patent US20070049564A1 (Wyeth, priority 2005, published 2007)
Values after ≈ are worked out from the molar mass of the structure shown. Where two headings read alike, the source gives them in different places.

Experiments:
E. coli = test: Range of MIC for E. coli strains; details: Escherichia coli
Staph. = test: Range of MIC for Staph. strains, including MRSA; details: Staphylococcus aureus, MRSA
Staph. aureus Smith = test: In vivo activity (oral, iv; ED50) against Staph. aureus Smith in mice
Method: Representative examples of compounds of Formula I were tested for the oral efficacy using S. aureus Smith in mice.

[1] = 20 h, read-out: Range of MIC, E. coli (Mouse Serum)
[2] = read-out: Minimum inhibitory concentration (MIC), E. coli (mouse serum)
[3] = read-out: Minimum inhibitory concentration (MIC), E. coli (water)
[4] = read-out: Range of MIC, E. coli (Water)
[5] = read-out: Minimum inhibitory concentration (MIC), Staph. (mouse serum)
[6] = read-out: Minimum inhibitory concentration (MIC), Staph. (water)
[7] = read-out: Range of MIC, Staph (Mouse Serum)
[8] = read-out: Range of MIC, Staph (Water)
[9] = Staphylococcus aureus, in Mus musculus, po, read-out: ED50 Staph Smith SOD
[10] = iv, read-out: ED50 Staph Smith SIV

With `CCCCCCC(=O)OCOC(=O)N(CCCC)CC(=O)Nc1cc(N(C)C)c2c(c1O)C(=O)C1=C(O)[C@]3(O)C(=O)C(C(N)=O)=C(O)[C@@H](N(C)C)[C@@H]3C[C@@H]1C2` [Example 17, ({[(2-{[(5aR,6aS,7S,10aS)-9-(aminocarbonyl)-4,7-bis(dimethylamino)-1,8,10a,11-tetrahydroxy-10,12-dioxo-5,5a,6,6a,7,10,10a,12-octahydrotetracen-2-yl]amino}-2-oxoethyl)(butyl)amino]carbonyl}oxy)methyl heptanoate] the MIC (E. coli; [1]) was 0.5 to 2 µg/mL (≈ 0.648 to 2.59 µM), the MIC (E. coli; [2]) was 0.5 to 2 µg/mL (≈ 0.648 to 2.59 µM) and the MIC (E. coli; [3]) was 32 to 64 µg/mL (≈ 41.5 to 82.9 µM). For the same compound, the MIC (E. coli; [4]) was 32 to 64 µg/mL (≈ 41.5 to 82.9 µM), the MIC (Staph.; [5]) was 1 to 4 µg/mL (≈ 1.3 to 5.18 µM) and the MIC (Staph.; [6]) was 2 to 32 µg/mL (≈ 2.59 to 41.5 µM). The MIC (Staph.; [7]) was 1 to 4 µg/mL (≈ 1.3 to 5.18 µM), the MIC (Staph.; [8]) was 2 to 32 µg/mL (≈ 2.59 to 41.5 µM) and the ED50 (Staph. aureus Smith; [9]) was 59.9 mg/kg. It also gave an ED50 (Staph. aureus Smith; [10]) of 1.07 mg/kg.

Compound `CCCCN(CC(=O)Nc1cc(N(C)C)c2c(c1O)C(=O)C1=C(O)[C@]3(O)C(=O)C(C(N)=O)=C(O)[C@@H](N(C)C)[C@@H]3C[C@@H]1C2)C(=O)OCOC(=O)C1CCC1` [Example 18, ({[(2-{[(5aR,6aS,7S,10aS)-9-(aminocarbonyl)-4,7-bis(dimethylamino)-1,8,10a,11-tetrahydroxy-10,12-dioxo-5,5a,6,6a,7,10,10a,12-octahydrotetracen-2-yl]amino}-2-oxoethyl)(butyl)amino]carbonyl}oxy)methyl cyclobutanecarboxylate] has an MIC (E. coli; [1]) of 0.5 to 2 µg/mL (≈ 0.674 to 2.7 µM), an MIC (E. coli; [2]) of 0.5 to 2 µg/mL (≈ 0.674 to 2.7 µM) and an MIC (E. coli; [3]) of 4 to 8 µg/mL (≈ 5.39 to 10.8 µM). For the same compound, the MIC (E. coli; [4]) was 4 to 8 µg/mL (≈ 5.39 to 10.8 µM), the MIC (Staph.; [5]) was 1 to 4 µg/mL (≈ 1.35 to 5.39 µM) and the MIC (Staph.; [6]) was 1 to 4 µg/mL (≈ 1.35 to 5.39 µM). The MIC (Staph.; [7]) was 1 to 4 µg/mL (≈ 1.35 to 5.39 µM), the MIC (Staph.; [8]) was 1 to 4 µg/mL (≈ 1.35 to 5.39 µM) and the ED50 (Staph. aureus Smith; [9]) was 29 mg/kg. For the same compound, the ED50 (Staph. aureus Smith; [10]) was 0.6 mg/kg.

Compound `CCCCN(CC(=O)Nc1cc(N(C)C)c2c(c1O)C(=O)C1=C(O)[C@]3(O)C(=O)C(C(N)=O)=C(O)[C@@H](N(C)C)[C@@H]3C[C@@H]1C2)C(=O)OCOC(=O)c1ccc(C(C)(C)C)cc1` [Example 20, ({[(2-{[(5aR,6aS,7S,10aS)-9-(aminocarbonyl)-4,7-bis(dimethylamino)-1,8,10a,11-tetrahydroxy-10,12-dioxo-5,5a,6,6a,7,10,10a,12-octahydrotetracen-2-yl]amino}-2-oxoethyl)(butyl)amino]carbonyl}oxy)methyl 4-tert-butylbenzoate] has an MIC (E. coli; [1]) of 0.5 to 2 µg/mL (≈ 0.61 to 2.44 µM), an MIC (E. coli; [2]) of 0.5 to 2 µg/mL (≈ 0.61 to 2.44 µM) and an MIC (E. coli; [3]) greater than 64 µg/mL. For the same compound, the MIC (E. coli; [4]) was greater than 64 µg/mL, the MIC (Staph.; [5]) was 1 to 4 µg/mL (≈ 1.22 to 4.88 µM) and the MIC (Staph.; [7]) was 1 to 4 µg/mL (≈ 1.22 to 4.88 µM). For the same compound, the ED50 (Staph. aureus Smith; [9]) was 19.4 mg/kg and the ED50 (Staph. aureus Smith; [10]) was 0.6 mg/kg.

Work on `CCCCN(CC(=O)Nc1cc(N(C)C)c2c(c1O)C(=O)C1=C(O)[C@]3(O)C(=O)C(C(N)=O)=C(O)[C@@H](N(C)C)[C@@H]3C[C@@H]1C2)C(=O)OCOC(=O)c1ccsc1` [Example 29, ({[(2-{[(5aR,6aS,7S,10aS)-9-(aminocarbonyl)-4,7-bis(dimethylamino)-1,8,10a,11-tetrahydroxy-10,12-dioxo-5,5a,6,6a,7,10,10a,12-octahydrotetracen-2-yl]amino}-2-oxoethyl)(butyl)amino]carbonyl}oxy)methyl thiophene-3-carboxylate] yielded an MIC (E. coli; [1]) of 0.5 to 1 µg/mL (≈ 0.649 to 1.3 µM), an MIC (E. coli; [2]) of 0.5 to 1 µg/mL (≈ 0.649 to 1.3 µM) and an MIC (E. coli; [3]) greater than 64 µg/mL. It also gave an MIC (E. coli; [4]) greater than 64 µg/mL, an MIC (Staph.; [5]) of 0.25 to 2 µg/mL (≈ 0.325 to 2.6 µM) and an MIC (Staph.; [6]) of 1 to 4 µg/mL (≈ 1.3 to 5.2 µM). It also gave an MIC (Staph.; [7]) of 0.25 to 2 µg/mL (≈ 0.325 to 2.6 µM), an MIC (Staph.; [8]) of 1 to 4 µg/mL (≈ 1.3 to 5.2 µM) and an ED50 (Staph. aureus Smith; [9]) of 13.7 mg/kg. It also gave an ED50 (Staph. aureus Smith; [10]) of 0.43 mg/kg.

`CCCCN(CC(=O)Nc1cc(N(C)C)c2c(c1O)C(=O)C1=C(O)[C@]3(O)C(=O)C(C(N)=O)=C(O)[C@@H](N(C)C)[C@@H]3C[C@@H]1C2)C(=O)OCOC(=O)c1ccco1` [Example 30, ({[(2-{[(5aR,6aS,7S,10aS)-9-(aminocarbonyl)-4,7-bis(dimethylamino)-1,8,10a,11-tetrahydroxy-10,12-dioxo-5,5a,6,6a,7,10,10a,12-octahydrotetracen-2-yl]amino}-2-oxoethyl)(butyl)amino]carbonyl}oxy)methyl 2-furate] gave an MIC (E. coli; [1]) of 0.5 to 1 µg/mL (≈ 0.663 to 1.33 µM), an MIC (E. coli; [2]) of 0.5 to 1 µg/mL (≈ 0.663 to 1.33 µM) and an MIC (Staph.; [5]) of 0.25 to 2 µg/mL (≈ 0.332 to 2.65 µM). It also gave an MIC (Staph.; [6]) of 1 to 8 µg/mL (≈ 1.33 to 10.6 µM), an MIC (Staph.; [7]) of 0.25 to 2 µg/mL (≈ 0.332 to 2.65 µM) and an MIC (Staph.; [8]) of 1 to 8 µg/mL (≈ 1.33 to 10.6 µM). It also gave an ED50 (Staph. aureus Smith; [9]) of 15.1 mg/kg and an ED50 (Staph. aureus Smith; [10]) of 0.41 mg/kg.

`CCCN(CC(=O)Nc1cc(N(C)C)c2c(c1O)C(=O)C1=C(O)[C@]3(O)C(=O)C(C(N)=O)=C(O)[C@@H](N(C)C)[C@@H]3C[C@@H]1C2)C(=O)OCOC(=O)c1ccco1` [Example 31, ({[(2-{[(5aR,6aS,7S,10aS)-9-(aminocarbonyl)-4,7-bis(dimethylamino)-1,8,10a,11-tetrahydroxy-10,12-dioxo-5,5a,6,6a,7,10,10a,12-octahydrotetracen-2-yl]amino}-2-oxoethyl)(propyl)amino]carbonyl}oxy)methyl 2-furate] was tested, and the MIC (E. coli; [1]) was 0.5 to 1 µg/mL (≈ 0.676 to 1.35 µM), the MIC (E. coli; read-out: Range of MIC, E. coli (mouse serum)) was 0.5 to 1 µg/mL (≈ 0.676 to 1.35 µM) and the MIC (Staph.; [7]) was 0.25 to 2 µg/mL (≈ 0.338 to 2.7 µM). The MIC (Staph.; [8]) was 0.5 to 4 µg/mL (≈ 0.676 to 5.41 µM), the MIC (Staph.; read-out: Range of MIC, Staph. (mouse serum)) was 0.25 to 2 µg/mL (≈ 0.338 to 2.7 µM) and the MIC (Staph.; read-out: Range of MIC, Staph. (water)) was 0.5 to 4 µg/mL (≈ 0.676 to 5.41 µM). The ED50 (Staph. aureus Smith; [9]) was 11.1 mg/kg and the ED50 (Staph. aureus Smith; [10]) was 0.31 mg/kg.

For `CCCCN(CC(=O)Nc1cc(N(C)C)c2c(c1O)C(=O)C1=C(O)[C@]3(O)C(=O)C(C(N)=O)=C(O)[C@@H](N(C)C)C3CC1C2)C(=O)OC(C)OC(C)=O` (stereo partly drawn) [Example 32, 1-({[(2-{[(7S,10aS)-9-(aminocarbonyl)-4,7-bis(dimethylamino)-1,8,10a,11-tetrahydroxy-10,12-dioxo-5,5a,6,6a,7,10,10a,12-octahydrotetracen-2-yl]amino}-2-oxoethyl)(butyl)amino]carbonyl}oxy)ethyl acetate], the MIC (E. coli; [1]) was 0.5 to 1 µg/mL, the MIC (E. coli; [4]) was 1 to 4 µg/mL and the MIC (Staph.; [7]) was 0.25 to 2 µg/mL. The MIC (Staph.; [8]) was 0.5 to 4 µg/mL, the ED50 (Staph. aureus Smith; [9]) was 7.7 mg/kg and the ED50 (Staph. aureus Smith; [10]) was 0.56 mg/kg.

`CCCCN(CC(=O)Nc1cc(N(C)C)c2c(c1O)C(=O)C1=C(O)[C@]3(O)C(=O)C(C(N)=O)=C(O)[C@@H](N(C)C)C3CC1C2)C(=O)OCOC(=O)C1CCCCC1` (stereo partly drawn) [Example 34, ({[(2-{[(7S,10aS)-9-(aminocarbonyl)-4,7-bis(dimethylamino)-1,8,10a,11-tetrahydroxy-10,12-dioxo-5,5a,6,6a,7,10,10a,12-octahydrotetracen-2-yl]amino}-2-oxoethyl)(butyl)amino]carbonyl}oxy)methyl cyclohexanecarboxylate] gave an MIC (E. coli; [1]) of 0.5 to 1 µg/mL (≈ 0.649 to 1.3 µM), an MIC (E. coli; [2]) of 0.5 to 1 µg/mL (≈ 0.649 to 1.3 µM) and an MIC (E. coli; [3]) of 4 to 16 µg/mL (≈ 5.2 to 20.8 µM). The MIC (E. coli; [4]) was 4 to 16 µg/mL (≈ 5.2 to 20.8 µM), the MIC (Staph.; [5]) was 0.25 to 4 µg/mL (≈ 0.325 to 5.2 µM) and the MIC (Staph.; [6]) was 0.25 to 4 µg/mL (≈ 0.325 to 5.2 µM). It also gave an MIC (Staph.; [7]) of 0.25 to 4 µg/mL (≈ 0.325 to 5.2 µM), an MIC (Staph.; [8]) of 0.25 to 4 µg/mL (≈ 0.325 to 5.2 µM) and an ED50 (Staph. aureus Smith; [9]) of 12.9 mg/kg. It also gave an ED50 (Staph. aureus Smith; [10]) of 0.71 mg/kg.

Work on `CN(C)c1cc(NC(=O)CN(C(=O)OCOC(=O)c2ccc(C(=O)c3ccccc3)cc2)C(C)(C)C)c(O)c2c1C[C@H]1C[C@H]3[C@H](N(C)C)C(O)=C(C(N)=O)C(=O)[C@@]3(O)C(O)=C1C2=O` [Example 107, ({[(2-{[(5aR,6aS,7S,10aS)-9-(aminocarbonyl)-4,7-bis(dimethylamino)-1,8,10a,11-tetrahydroxy-10,12-dioxo-5,5a,6,6a,7,10,10a,12-octahydrotetracen-2-yl]amino}-2-oxoethyl)(tert-butyl)amino]carbonyl}oxy)methyl 4-benzoylbenzoate] yielded an MIC (E. coli; [1]) greater than 64 µg/mL, an MIC (E. coli; [4]) of 0.5 to 1 µg/mL (≈ 0.576 to 1.15 µM) and an MIC (Staph.; [7]) of 2 to 8 µg/mL (≈ 2.3 to 9.22 µM). For the same compound, the MIC (Staph.; [8]) was 0.5 to 1 µg/mL (≈ 0.576 to 1.15 µM).

`CCCN(CC(=O)Nc1cc(N(C)C)c2c(c1O)C(=O)C1=C(O)[C@]3(O)C(=O)C(C(N)=O)=C(O)[C@@H](N(C)C)C3CC1C2)C(=O)OCc1oc(=O)oc1-c1ccc(OC)cc1` (stereo partly drawn) [Example 111, [5-(4-methoxyphenyl)-2-oxo-1,3-dioxol-4-yl]methyl 2-{[(7S,10aS)-9-(aminocarbonyl)-4,7-bis(dimethylamino)-1,8,10a,11-tetrahydroxy-10,12-dioxo-5,5a,6,6a,7,10,10a, 12-octahydrotetracen-2-yl]amino}-2-oxoethyl(propyl)carbamate] was tested, and the MIC (E. coli; [1]) was 0.25 to 1 µg/mL (≈ 0.305 to 1.22 µM), the MIC (E. coli; [4]) was 1 to 4 µg/mL (≈ 1.22 to 4.88 µM) and the MIC (Staph.; [7]) was 0.5 to 8 µg/mL (≈ 0.61 to 9.76 µM). The MIC (Staph.; [8]) was 1 to 16 µg/mL (≈ 1.22 to 19.5 µM).
